According to patent EP4692105A1, “CYCLIC POLYPEPTIDE COMPOUND AND USE THEREOF” (Bivision Pharmaceuticals, Inc, priority 2023, dated 2024):
Ends that are not written are not given here.

How the values were obtained:
[1] = target: dipeptidyl peptidase IV (DPPIV) (Homo sapiens, UniProt P27487); assay: Protease inhibition selectivity assay (fluorogenic substrate Gly-Pro-AMC), DPPIV; assay type: biochemical; conditions: recombinant human DPPIV 0.1 nM, pH 7.5; read-out: pIC50 (DPPIV) (converted)
Protocol: (§1) The specificity of the synthesized compounds for recombinant human dipeptidyl peptidase IV (DPPIV), fibroblast activation protein (FAP), or prolyl oligopeptidase (PREP) was expressed by their half-maximal inhibitory concentration (IC50) against the proteases. […] It was incubated at room temperature for 10 minutes, with the plate being shaken for the first two minutes. • 6) 10 µL of the 20x substrate prepared in step 3 was added to each well and incubated at room temperature for 15 minutes, with the plate being shaken for the first two minutes. • 7) Fluorescence was read at λex:380 and λem:460.

[2] = target: T1, fibroblast activation protein (FAP) (Homo sapiens, UniProt Q12884); assay: Protease inhibition selectivity assay (fluorogenic substrate Z-Gly-Pro-AMC), FAP; assay type: biochemical; conditions: recombinant human FAP 1.2 nM, pH 7.5
T1 sequence (Q12884 1-760): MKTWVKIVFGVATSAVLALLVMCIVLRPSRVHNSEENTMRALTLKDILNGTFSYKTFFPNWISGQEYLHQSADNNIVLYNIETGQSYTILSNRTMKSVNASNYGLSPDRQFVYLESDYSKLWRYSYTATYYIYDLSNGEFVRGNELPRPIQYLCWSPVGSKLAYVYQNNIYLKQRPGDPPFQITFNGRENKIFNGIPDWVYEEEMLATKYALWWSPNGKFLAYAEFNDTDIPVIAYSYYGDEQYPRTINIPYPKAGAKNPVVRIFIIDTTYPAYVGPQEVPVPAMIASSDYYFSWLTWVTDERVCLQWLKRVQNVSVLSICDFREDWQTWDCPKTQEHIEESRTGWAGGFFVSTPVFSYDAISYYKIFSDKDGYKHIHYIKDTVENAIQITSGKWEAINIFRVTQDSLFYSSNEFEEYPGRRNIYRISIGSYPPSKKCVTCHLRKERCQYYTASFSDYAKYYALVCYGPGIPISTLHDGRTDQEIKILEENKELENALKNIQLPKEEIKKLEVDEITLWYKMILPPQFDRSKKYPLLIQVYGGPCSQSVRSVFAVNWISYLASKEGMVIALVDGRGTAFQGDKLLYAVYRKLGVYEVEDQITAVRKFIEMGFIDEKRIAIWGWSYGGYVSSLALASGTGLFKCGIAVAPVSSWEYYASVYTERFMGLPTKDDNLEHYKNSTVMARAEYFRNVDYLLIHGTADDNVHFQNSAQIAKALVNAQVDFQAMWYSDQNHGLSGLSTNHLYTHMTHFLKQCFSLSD
Protocol: as §1

FAP protein = target: T2, FAP protein (Homo sapiens, UniProt Q12884); assay: Biacore (SPR) test of compound affinity to FAP protein; assay type: binding; conditions: for pKD (FAP): Biacore 8K, SA chip, 15 °C, single cycle, 1:1 binding model, pKD = -LogKD
T2 construct: purchased Sinobiological
T2 sequence (Q12884 1-760): T1 sequence (Q12884 1-760)
Protocol: The Biacore 8K (Cytiva) instrument was used to detect ligand binding of the FAP protein (Sinobiological). FAP protein was captured on the SA chip. Prior to ligand immobilization (flow paths 1 and 2, flow rate of 10 µL/min), FAP protein (10 µg/mL, flow rate of 5 µL/min, injection time of 600 s) was immobilized on flow path 2 using running buffer. The sensor surface was conditioned by injecting 1M NaCl three consecutive times in 50 mM NaOH. After each ligand injection, additional cleaning was performed using isopropanol in 1M NaCl and 50 mM NaOH (flow path 1 and 2, flow rate of 10 µL/min, injection time of 60 s).
The tested compound was dissolved in 100% dimethyl sulfoxide and diluted to 10 mM, then diluted in the assay buffer (PBS, pH 7.4, 1 mM TCEP ([…]), 0.05% P20, 2% dimethyl sulfoxide) to an appropriate maximum concentration. The analyte was run under the following conditions: analysis temperature of 15 °C, analysis step = all set to LMW kinetics; cycle type = single cycle (contact time of 90 s, dissociation time of 1800 s, flow rate of 30 µL/min, flow channels 1 and 2); channel detection = 2-1. Data was evaluated using the Biacore Insight Evaluation Software, and the data were fitted to a 1:1 binding model.
The Biacore results are shown in Table 2 below: pKD = -LogKD, where KD is the binding affinity of the compound to the FAP protein as measured by Biacore.

[3] = target: T3, prolyl oligopeptidase (PREP) (Homo sapiens, UniProt P48147); assay: Protease inhibition selectivity assay (fluorogenic substrate Z-Gly-Pro-AMC), PREP; assay type: biochemical; conditions: recombinant human PREP 0.6 nM, pH 8.0
T3 sequence (P48147 1-710): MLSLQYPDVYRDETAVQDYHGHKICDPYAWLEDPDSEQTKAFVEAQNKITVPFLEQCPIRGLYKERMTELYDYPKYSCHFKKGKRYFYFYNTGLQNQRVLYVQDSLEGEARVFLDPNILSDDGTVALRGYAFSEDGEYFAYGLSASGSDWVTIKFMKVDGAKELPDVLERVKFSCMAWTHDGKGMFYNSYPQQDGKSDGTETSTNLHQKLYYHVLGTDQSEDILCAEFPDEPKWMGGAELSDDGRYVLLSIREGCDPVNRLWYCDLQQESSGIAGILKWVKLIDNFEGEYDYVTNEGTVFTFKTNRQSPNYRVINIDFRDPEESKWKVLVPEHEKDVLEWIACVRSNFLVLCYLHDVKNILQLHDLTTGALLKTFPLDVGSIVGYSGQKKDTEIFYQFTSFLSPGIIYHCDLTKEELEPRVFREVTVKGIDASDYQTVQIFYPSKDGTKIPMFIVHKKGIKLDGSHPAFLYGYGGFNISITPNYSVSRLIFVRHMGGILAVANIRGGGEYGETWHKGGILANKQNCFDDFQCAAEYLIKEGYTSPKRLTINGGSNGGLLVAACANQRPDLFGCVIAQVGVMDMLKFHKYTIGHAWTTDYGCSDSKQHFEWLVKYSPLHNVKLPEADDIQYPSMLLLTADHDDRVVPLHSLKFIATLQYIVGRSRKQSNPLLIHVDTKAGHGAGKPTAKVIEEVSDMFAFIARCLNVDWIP
Protocol: as §1

dipeptidyl peptidase IV (DPPIV), sequence (P27487 whole entry): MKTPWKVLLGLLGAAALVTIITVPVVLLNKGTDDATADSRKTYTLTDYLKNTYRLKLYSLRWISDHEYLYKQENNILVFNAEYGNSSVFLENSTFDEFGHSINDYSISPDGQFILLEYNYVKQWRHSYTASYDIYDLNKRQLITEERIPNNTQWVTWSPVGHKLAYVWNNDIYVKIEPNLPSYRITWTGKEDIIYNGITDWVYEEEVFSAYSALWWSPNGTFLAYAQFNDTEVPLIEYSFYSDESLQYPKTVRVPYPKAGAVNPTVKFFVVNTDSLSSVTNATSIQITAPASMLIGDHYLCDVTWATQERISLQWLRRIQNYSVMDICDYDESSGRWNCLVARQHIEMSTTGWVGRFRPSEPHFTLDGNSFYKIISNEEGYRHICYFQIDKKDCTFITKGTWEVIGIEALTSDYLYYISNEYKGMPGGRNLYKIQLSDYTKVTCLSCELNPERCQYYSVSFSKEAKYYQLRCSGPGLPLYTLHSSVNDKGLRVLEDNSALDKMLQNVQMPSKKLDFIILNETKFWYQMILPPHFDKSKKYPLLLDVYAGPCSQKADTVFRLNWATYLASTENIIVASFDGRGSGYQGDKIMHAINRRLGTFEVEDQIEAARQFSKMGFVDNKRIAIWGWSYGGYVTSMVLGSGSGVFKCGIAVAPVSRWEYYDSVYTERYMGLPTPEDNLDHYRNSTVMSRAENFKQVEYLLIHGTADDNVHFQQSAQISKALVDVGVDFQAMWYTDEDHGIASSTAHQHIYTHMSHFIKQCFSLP

IC50 [1] [nM]	IC50 [2] [nM]	Kd (FAP protein; read-out: pKD (FAP) (converted)) [nM]	IC50 [3] [nM]	pKD (FAP) (FAP protein)	Molecule
> 1000	< 10	10 to 100	> 1000	–	CCCCCC(=O)N[C@H]1CSCc2cc(CSCCNC(=O)CN3CCN(CC(=O)O)CCN(CC(=O)O)CCN(CC(=O)O)CC3)cc(c2)CSC[C@@H](C(=O)O)NC(=O)[C@H](Cc2ccccc2)NC(=O)[C@H](CCC(N)=O)NC(=O)[C@H]([C@@H](C)O)NC(=O)[C@@H]2CCCN2C(=O)[C@@H]2CCCN2C1=O [FAP-2286]
–	–	–	–	B (B: 7<pKD<8)	Hex[Cys(3MeBn)-hhy44(NH)-CO-Pro-Thr-Gln-Phe-Cys]-Lys-(DOTA)-OH (PTQFC-{K(DOTA)-OH}; not fully specified (N-terminus, bridges); also: cyclised within brackets, ring closure not given here) [JHDC07]
–	–	–	–	B (B: 7<pKD<8)	Oct[Cys(tMeBn-DOTA-AET)-hhy39-Pro-Thr-Gln-hhy34-Cys]-Glu-(Arg-Gly-Asp(NH2))-OH [JHDC21]
